These results are taken from patent publication US20210315839A1, “USE OF SPERMIDINE FOR THE ENHANCEMENT OF MITOCHONDRIAL RESPIRATION” (TLL THE LONGEVITY LABS GMBH, priority 2016, published 2021).

The assay concerns mitochondrial Complex I. The experiment in a line: High resolution respirometry of cardiac mitochondria isolated from spermidine supplemented aged mice (Complex I activity). The note with it: for activity of mitochondrial Complex I (respiratory competence of cardiac mitochondria through respiratory chain complex I, OXPHOS stage): isolated cardiac mitochondria of 24 month old mice after 6 months of spermidine supplementation (24M+S) vs aged control (24M), complex I supplying substrates, 37° C., N-5/5. Format: in vivo, C57BL/6 mice. How it is done:
Mitochondria isolated from cardyomyocytes of spermidine or sham treated 24 month old and 4 month old (young reference) C57B/63 wildtype mice were used for measurement of mitochondrial respiratory activity.
Wild type C57BL/6 mice were purchased from Janvier Labs, France (C57BL6/J:Rj males). Supplementation of spermidine was conducted late in life (starting at age of 18 months). After 6 months of treatment, isolation of cardiac mitochondria and high resolution respirometry was performed, using an isolation buffer containing 0.2% BSA and 5 mg/ml bacterial protease (Sigma-Aldrich, P8038). Hearts were quickly excised immediately after final blood collection under isoflurane anaesthesia and processed.
Optical density at 600 nm (0D600) of the final mitochondrial suspension (isolation buffer including BSA, but excluding protease) was determined by serial dilutions in a TECAN GeniusPro plate reader and served as an estimate of mitochondrial mass used for normalization. Oxygen consumption was assayed at 37° C. with an Oxygraph 2 k high resolution respirometer (Oroboros Instruments, Austria) according to the manufacturer's recommendations. OD600 equivalents of isolated myocardial mitochondria corresponding to 10-20 ug mitochondrial protein were diluted in 2 ml equilibrated measurement medium (100 mM sucrose, 20 mM K+−TES (pH=7.2), 50 mM KCl, 2 mM MgCl2, 1 mM EDTA, 4 mM KH2PO4, 3 mM malate and 0.1% (v/v) BSA) within a closed and calibrated system with constant stirring. […]
In FIG. 1A representative oxygraph recordings and (B) quantification of mitochondrial respiration (only OXPHOS stage shown) from isolated cardiac mitochondria incubated with complex I supplying substrates […] and pyruvate (Gly/Pyr) are shown. ROX, Residual respiration (State 1) in the absence of reduced substrate and ADP; LEAK, Respiration compensating for proton leak in the absence of ADP but presence of reduced substrate; OXPHOS, ADP stimulated respiration of coupled mitochondria (quantification shown in FIG. 1B); OXPHOS+CytC, Oxphos after addition of cytochrome C. […]

In the case of `NCCCCNCCCN` [Spermidine, N-(3-Aminopropyl)-1,4-diaminobutane], the “activity of mitochondrial Complex I (respiratory competence of cardiac mitochondria through respiratory chain complex I, OXPHOS stage)” value was “increases the activity of mitochondrial Complex I”. For the same compound, where the note is “aged spermidine supplemented mice vs aged control and young reference mice, cardiac mitochondria”, the “age-induced decline in mitochondrial respiratory function” value is on record as “reversed”. In addition, where the note is “listed as spermidine”, the “activity of mitochondrial Complex I (respiratory competence of cardiac mitochondria through respiratory chain complex I, OXPHOS stage)” value was “increased”.
